According to patent publication US20240376094A2, “SELECTIVE BCL-XL PROTAC COMPOUNDS AND METHODS OF USE” (Les Laboratoires Servier, priority 2021, published 2024):

Legend:
Type in all cases: cell-based
[1] = system: COR-L105; assay: CellTiter-Glo proliferation assay, COR-L105; conditions: Homo sapiens, COR-L105, 120 h, COR-L105, 5 days; for Emax: read-out: COR-L105 Span (max)
Protocol: (§1) The BCL-xL degrader compounds were tested against two endogenous cancer cell lines: • COR-L105: ECACC No. 92031918 cultured in RPMI-1640+10% FBS • NCI-H1650: (ATCC No. CRL-5883 cultured in RPMI-1640+10% FBS
(§2) The ability of the BCL-xL degrader low molecular weight compounds to inhibit cell proliferation and survival was assessed using the Promega CellTiter-Glo® proliferation assay.
(§3) Cell lines were cultured in media that is optimal for their growth at 5% CO2, 37° C. in a tissue culture incubator. Prior to seeding for the proliferation assay, the cells were split at least 2 days before the assay to ensure optimal growth density. On the day of seeding, adherent cells were lifted off tissue culture flasks using 0.25% trypsin. Cell viability and cell density were determined using a cell counter (Vi-Cell XR Cell Viability Analyzer, Beckman Coulter). Cells with higher than 85% viability were seeded for the assay.
(§4) The COR-105 cell line was seeded in white, clear bottom 384-well TC treated plates (Corning cat. #3765). Cells were seeded at a density of 1,000 cells per well in 45 μL of standard growth media. Plates were incubated at 5% CO2, 37° C. overnight in a tissue culture incubator. The NCI-H1650 cell line was seeded in black, clear round bottom 384-well ultra-low attachment spheroid microplates (Corning cat. #3830). Cells were seeded at a density of 3,000 cells per well in 45 uL of standard growth media. Plates were spun in a centrifuge for 5 minutes and 1,000 RPM. Plates were incubated at 5% CO2, 37° C. for 72 hours in a tissue culture incubator.
(§5) On the day of dosing, BCL-xL degrader low molecular weight compounds were prepared at 1 OX in standard growth media. The prepared drug treatments were then added to the cells resulting in final concentrations of 0.508 nM-10 μM and a final volume of 50 μL per well. Each drug concentration was tested in quadruplets. Plates were incubated at 5% CO2, 37° C. for 5 days in a tissue culture incubator.
(§6) For COR-L105 plates, cell viability was assessed through the addition of 25 μL of CellTiter Glo® (Promega, cat #G7573), a reagent which lyses cells and measures total adenosine triphosphate (ATP) content. Plates were incubated at room temperature for 10 minutes to stabilize luminescent signals prior to reading with a luminescence reader (EnVision Multilabel Plate Reader, PerkinElmer). For NCI-H1650 plates, cell viability was assessed through the addition of 40 μL of CellTiter Glo® 3D Cell Viability Assay substrate (Promega, cat #G9681), a reagent which lyses cells and measures total adenosine triphosphate (ATP) content. Wells were mixed thoroughly and plates were incubated at room temperature for 30 minutes to stabilize luminescent signals prior to reading using a luminescence reader (EnVision Multilabel Plate Reader, PerkinElmer).
(§7) To evaluate the effect of the drug treatments, luminescent counts from wells containing untreated cells (100% viability) were used to normalize treated samples. A variable slope model was applied to fit a nonlinear regression curve to the data in GraphPad PRISM version 7.02 software. IC50 and Amax values were extrapolated from the resultant curves. The concentrations of treatment required to inhibit 50% of cell growth or survival (IC50) were calculated with representative IC50 values of the cell lines tested summarized in Table 11.

[2] = system: NCI-H1650; assay: CellTiter-Glo 3D proliferation assay, NCI-H1650 spheroids; conditions: Homo sapiens, NCI-H1650, 120 h, 5 days; for Emax: read-out: NCI-H1650 Span (Amax)
Protocol: as §1, §2, §3, §4, §5, §6, §7

[3] = system: EBC-1 lung cancer cell line; assay: EBC-1 cell proliferation, CellTiter-Glo assay; conditions: Homo sapiens, 120 h; Ebc-1 cell viability, CTG assay, 5 days of treatment; read-out: CTG 5 day Ebc1 GI50
Procedure, shortened: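 EBC-1 cells seeded at 1000 per well overnight, then exposed to 10-point dilutions (0.508 nM–10 μM final) for 5 days at 37 °C, in triplicate. ATP luminescence by CellTiter-Glo, normalised to untreated wells; GI50 from four-parameter logistic fit, runs valid only with at least one doubling.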

[4] = target: T1, HiBiT-tagged BCL-xL (Homo sapiens, UniProt Q07817); assay: NCI-H1650 BCL-xL protein levels, Nano-Glo HiBiT Lytic Detection; conditions: NCI-H1650 expressing HiBiT-tagged BCL-xL, overnight incubation, read-out: Bcl-xl HIBIT NCIH1650 DC50
T1 construct: expressed in transfected cells; host or cells: NCI-H1650 (ATCC No. CRL-5883), engineered HiBiT cell line
Procedure, shortened: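 NCI-H1650 cells expressing HiBiT-tagged BCL-xL (5000/well) were treated overnight at 37° C with 10 concentrations, final 0.508 nM-10 μM, in triplicate. Remaining BCL-xL measured by Nano-Glo HiBiT lytic luminescence, normalized to untreated cells; 50% values by four-parameter logistic fit.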

[5] = system: MOLT-4 cells; assay: MOLT-4 cell viability, MTT assay; conditions: Homo sapiens, MOLT-4, 48 h
Excerpt: The MTT colorimetric assay is based on the mitochondrial reduction of tetrazolium salt by living cells. The viable cell number is proportional to the production of formazan salts, which can be read spectrophotometrically at 540 nm. The CTG luminescent assay (CellTiter GLO, Promega) is based on a reagent which lyses cells and measures total adenosine triphosphate (ATP) content. The viable cell number is proportional to the production of ATP.
MOLT-4 cells were purchased from ATCC and cultivated in RPMI 1640 supplemented with 10% heat inactivated fetal bovine serum, penicillin (100 IU/mi), streptomycin (100 μg/ml) and L-glutamine (2 mM). Cells were cultured at 37° C. in a humidified atmosphere containing 5% […].
For MTT assay, cells were seeded in 96 microwell plates (150 μL per well) and exposed to the compounds for 48 h (3.16 fold serially diluted; 9 concentrations each, triplicates). At the end of incubation time, 15 μL of MTT solution (5 mg/ml) were added per well and the cells were incubated for another 4 h. Then, 100 μL of 10% Sodium Dodecyl Sulfate (SDS)/HCl 10 mM were added per well and the plate was incubated overnight, before measurement of optical density at 540 nm.
IC50, were calculated using standard four-parametric curve fitting. IC50 is defined as the compound concentration at which the MTT or CTG signal is reduced to 50% of that measured for the control. Results shown in Table 14 represent the mean of at least 2 independent experiments.

T1 sequence (Q07817 whole entry): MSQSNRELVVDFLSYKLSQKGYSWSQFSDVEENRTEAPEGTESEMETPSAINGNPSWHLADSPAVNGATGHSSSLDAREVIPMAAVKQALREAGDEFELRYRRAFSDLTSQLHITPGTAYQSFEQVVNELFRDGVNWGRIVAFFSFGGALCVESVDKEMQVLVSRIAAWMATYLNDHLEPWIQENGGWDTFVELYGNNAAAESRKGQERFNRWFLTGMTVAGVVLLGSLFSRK

SMILES	IC50 [2] [nM]	GI50 [3] [nM]	DC50 [4] [nM]	IC50 [5] [nM]	IC50 [1] [nM]	Emax [1] [%]	Emax [2] [%]
Cc1ncsc1-c1ccc(CNC(=O)[C@@H]2C[C@@H](O)CN2C(=O)[C@@H](NC(=O)C2(F)CC2)C(C)(C)C)c(OCCCCCCCCCN2CCN(CC#Cc3ccc(OCCCc4sc(N5CCCc6c5nnc(Nc5nc7ccccc7s5)c6C)nc4C(=O)O)c(F)c3)CC2)c1 [Example 57, 2-(3-(benzo[d]thiazol-2-ylamino)-4-methyl-6,7-dihydropyrido [2,3-c]pyridazin-8(5H)-yl)-5-(3-(2-fluoro-4-(3-(4-(9-(2-(((2S,4R)-1-((S)-2-(1-fluorocyclopropane-1-carboxamido)-3,3-dimethylbutanoyl)-4-hydroxypyrrolidine-2-carboxamido)methyl)-5-(4-methylthiazol-5-yl)phenoxy)nonyl)piperazin-1-yl)prop-1-yn-1-yl)phenoxy)propyl)thiazole-4-carboxylic acid]	258	5	18	–	3630	72.5	126
Cc1ncsc1-c1ccc(CNC(=O)[C@@H]2C[C@@H](O)CN2C(=O)[C@@H](NC(=O)C2(F)CC2)C(C)(C)C)c(OCCN(C)CC(=O)N2CCN(CC#Cc3ccc(OCCCc4sc(N5CCCc6c5nnc(Nc5nc7ccccc7s5)c6C)nc4C(=O)O)c(F)c3)CC2)c1 [Example 59, 2-(3-(benzo[d]thiazol-2-ylamino)-4-methyl-6,7-dihydropyrido [2,3-c]pyridazin-8(5H)-yl)-5-(3-(2-fluoro-4-(3-(4-(N-(2-(2-(((2S,4R)-1-((S)-2-(1-fluorocyclopropane-1-carboxamido)-3,3-dimethylbutanoyl)-4-hydroxypyrrolidine-2-carboxamido)methyl)-5-(4-methylthiazol-5-yl)phenoxy)ethyl)-N-methylglycyl)piperazin-1-yl)prop-1-yn-1-yl)phenoxy)propyl)thiazole-4-carboxylic acid]	119	–	–	–	2430	105	77.9
Cc1cc(N(CCCCNC(=O)CCOCCOCCOCCOCCNc2cccc3c2C(=O)N(C2CCC(=O)NC2=O)C3=O)c2nc(C(=O)O)c(CCCOc3ccc(C#CCN(C)C)cc3F)s2)nnc1Nc1nc2ccccc2s1 (centres unmarked) [Example 149, 2-[[6-(1,3-benzothiazol-2-ylamino)-5-methyl-pyridazin-3-yl]-[4-[3-[2-[2-[2-[2-[[2-(2,6-dioxo-3-piperidyl)-1,3-dioxo-isoindolin-4-yl]amino]ethoxy]ethoxy]ethoxy]ethoxy]propanoylamino]butyl]amino]-5-[3-[4-[3-(dimethylamino)prop-1-ynyl]-2-fluoro-phenoxy]propyl]thiazole-4-carboxylic acid]	–	–	–	358	–	–	–

More lines, in order of falling IC50 [2], values ahead:

IC50 [2] [nM]	GI50 [3] [nM]	DC50 [4] [nM]	IC50 [5] [nM]	SMILES	IC50 [1] [nM]	Emax [1] [%]	Emax [2] [%]
302	–	–	–	Cc1ncsc1-c1ccc(CNC(=O)[C@@H]2C[C@@H](O)CN2C(=O)[C@@H](NC(=O)C2(F)CC2)C(C)(C)C)c(OCCCCCCCCCCCCN2CCN(CC#Cc3ccc(OCCCc4sc(N5CCCc6c5nnc(Nc5nc7ccccc7s5)c6C)nc4C(=O)O)c(F)c3)CC2)c1 [Example 55, 2-(3-(benzo[d]thiazol-2-ylamino)-4-methyl-6,7-dihydropyrido [2,3-c]pyridazin-8(5H)-yl)-5-(3-(2-fluoro-4-(3-(4-(12-(2-(((2S,4R)-1-((S)-2-(1-fluorocyclopropane-1-carboxamido)-3,3-dimethylbutanoyl)-4-hydroxypyrrolidine-2-carboxamido)methyl)-5-(4-methylthiazol-5-yl)phenoxy)dodecyl)piperazin-1-yl)prop-1-yn-1-yl)phenoxy)propyl)thiazole-4-carboxylic acid]	1160	81	78.8
188	–	–	–	Cc1ncsc1-c1ccc(CNC(=O)[C@@H]2C[C@@H](O)CN2C(=O)[C@@H](NC(=O)C2(F)CC2)C(C)(C)C)c(OCc2ccc(CN3CCN(CC#Cc4ccc(OCCCc5sc(N6CCCc7c6nnc(Nc6nc8ccccc8s6)c7C)nc5C(=O)O)c(F)c4)CC3)cc2)c1 [Example 58, 2-(3-(benzo[d]thiazol-2-ylamino)-4-methyl-6,7-dihydropyrido [2,3-c]pyridazin-8(5H)-yl)-5-(3-(2-fluoro-4-(3-(4-(4-((2-(((2S,4R)-1-((S)-2-(1-fluorocyclopropane-1-carboxamido)-3,3-dimethylbutanoyl)-4-hydroxypyrrolidine-2-carboxamido)methyl)-5-(4-methylthiazol-5-yl)phenoxy)methyl)benzyl)piperazin-1-yl)prop-1-yn-1-yl)phenoxy)propyl)thiazole-4-carboxylic acid]	481	85.5	98.2
110	–	–	–	Cc1ncsc1-c1ccc(CNC(=O)[C@@H]2C[C@@H](O)CN2C(=O)[C@@H](NC(=O)C2(F)CC2)C(C)(C)C)c(OCCCCCCCCN2CCN(CC#Cc3ccc(OCCCc4sc(N5CCCc6c5nnc(Nc5nc7ccccc7s5)c6C)nc4C(=O)O)c(F)c3)CC2)c1 [Example 56, 2-(3-(benzo[d]thiazol-2-ylamino)-4-methyl-6,7-dihydropyrido [2,3-c]pyridazin-8(5H)-yl)-5-(3-(2-fluoro-4-(3-(4-(8-(2-(((2S,4R)-1-((S)-2-(1-fluorocyclopropane-1-carboxamido)-3,3-dimethylbutanoyl)-4-hydroxypyrrolidine-2-carboxamido)methyl)-5-(4-methylthiazol-5-yl)phenoxy)octyl)piperazin-1-yl)prop-1-yn-1-yl)phenoxy)propyl)thiazole-4-carboxylic acid]	473	82	84.2
